# Legend:
# [1] = molecular target: cAMP-dependent protein kinase catalytic subunit alpha (Homo sapiens, UniProt P17612); experiment: Selectivity interaction (KinomeScan (DiscoverX)) EUB0000595a PRKACA; conditions: at 10 µM
# [2] = molecular target: RAF proto-oncogene serine/threonine-protein kinase (Homo sapiens) (UniProt P04049); experiment: Selectivity interaction (KinomeScan (DiscoverX)) EUB0001079a RAF1; conditions: at 1 µM
# [3] = molecular target: Insulin receptor-related protein (Homo sapiens) (UniProt P14616); experiment: Selectivity interaction (Kinase panel (Z-LYTE Assay)) EUB0001632a INSRR; conditions: at 10 µM
# [4] = molecular target: T1, Mitogen-activated protein kinase kinase kinase 13 (Homo sapiens) (UniProt O43283); experiment: Selectivity interaction (KinomeScan (DiscoverX)) EUB0000666a MAP3K13; conditions: at 10 µM
# T1 sequence (whole entry): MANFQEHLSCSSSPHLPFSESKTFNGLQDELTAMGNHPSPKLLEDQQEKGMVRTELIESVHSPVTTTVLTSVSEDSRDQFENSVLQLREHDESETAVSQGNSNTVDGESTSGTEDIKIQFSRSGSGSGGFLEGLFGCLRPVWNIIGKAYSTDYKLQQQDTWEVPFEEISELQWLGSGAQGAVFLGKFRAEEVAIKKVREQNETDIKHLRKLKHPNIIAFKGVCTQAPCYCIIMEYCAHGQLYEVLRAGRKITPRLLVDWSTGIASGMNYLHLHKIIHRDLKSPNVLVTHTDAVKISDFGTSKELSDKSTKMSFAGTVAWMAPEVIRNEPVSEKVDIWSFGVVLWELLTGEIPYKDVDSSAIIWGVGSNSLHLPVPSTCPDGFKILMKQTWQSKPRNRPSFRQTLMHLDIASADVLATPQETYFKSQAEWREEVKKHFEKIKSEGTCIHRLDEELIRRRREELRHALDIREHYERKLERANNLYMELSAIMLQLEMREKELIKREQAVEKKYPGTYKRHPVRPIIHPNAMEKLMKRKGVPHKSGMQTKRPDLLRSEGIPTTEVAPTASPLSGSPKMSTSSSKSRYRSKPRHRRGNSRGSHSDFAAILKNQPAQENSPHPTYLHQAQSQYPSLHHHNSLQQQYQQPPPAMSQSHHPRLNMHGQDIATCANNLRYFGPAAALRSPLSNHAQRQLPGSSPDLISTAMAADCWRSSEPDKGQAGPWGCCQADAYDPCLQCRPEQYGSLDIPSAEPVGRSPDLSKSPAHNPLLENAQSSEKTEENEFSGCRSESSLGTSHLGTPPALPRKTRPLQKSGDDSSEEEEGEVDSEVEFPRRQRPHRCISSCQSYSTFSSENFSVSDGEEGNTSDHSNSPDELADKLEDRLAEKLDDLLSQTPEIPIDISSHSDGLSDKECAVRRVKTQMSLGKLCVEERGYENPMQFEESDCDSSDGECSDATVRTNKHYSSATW
# [5] = molecular target: Mitogen-activated protein kinase kinase kinase kinase 4 (Homo sapiens, UniProt O95819); experiment: Selectivity interaction (Kinase screening (Nanosyn)) EUB0000604a MAP4K4
# [6] = molecular target: 1-phosphatidylinositol 3-phosphate 5-kinase (Homo sapiens) (UniProt Q9Y2I7); experiment: Selectivity interaction (KinomeScan (DiscoverX)) EUB0001049a PIKFYVE; conditions: at 1 µM
# [7] = Selectivity interaction (KinomeScan (DiscoverX)) EUB0001049a PKNB; conditions: at 1 µM
# [8] = molecular target: Rho-associated protein kinase 1 (Homo sapiens) (UniProt Q13464); experiment: Selectivity interaction (ActivX KiNativ screen (ex vivo kinase selectivity in human PBMCs)) EUB0001619a ROCK1; type: cell-based; conditions: PBMC, at 1 µM
# [9] = molecular target: T2, Ephrin type-B receptor 3 (Homo sapiens) (UniProt P54753); experiment: Selectivity interaction (KinomeScan (DiscoverX)) EUB0000618a EPHB3; conditions: at 10 µM
# T2 sequence (whole entry): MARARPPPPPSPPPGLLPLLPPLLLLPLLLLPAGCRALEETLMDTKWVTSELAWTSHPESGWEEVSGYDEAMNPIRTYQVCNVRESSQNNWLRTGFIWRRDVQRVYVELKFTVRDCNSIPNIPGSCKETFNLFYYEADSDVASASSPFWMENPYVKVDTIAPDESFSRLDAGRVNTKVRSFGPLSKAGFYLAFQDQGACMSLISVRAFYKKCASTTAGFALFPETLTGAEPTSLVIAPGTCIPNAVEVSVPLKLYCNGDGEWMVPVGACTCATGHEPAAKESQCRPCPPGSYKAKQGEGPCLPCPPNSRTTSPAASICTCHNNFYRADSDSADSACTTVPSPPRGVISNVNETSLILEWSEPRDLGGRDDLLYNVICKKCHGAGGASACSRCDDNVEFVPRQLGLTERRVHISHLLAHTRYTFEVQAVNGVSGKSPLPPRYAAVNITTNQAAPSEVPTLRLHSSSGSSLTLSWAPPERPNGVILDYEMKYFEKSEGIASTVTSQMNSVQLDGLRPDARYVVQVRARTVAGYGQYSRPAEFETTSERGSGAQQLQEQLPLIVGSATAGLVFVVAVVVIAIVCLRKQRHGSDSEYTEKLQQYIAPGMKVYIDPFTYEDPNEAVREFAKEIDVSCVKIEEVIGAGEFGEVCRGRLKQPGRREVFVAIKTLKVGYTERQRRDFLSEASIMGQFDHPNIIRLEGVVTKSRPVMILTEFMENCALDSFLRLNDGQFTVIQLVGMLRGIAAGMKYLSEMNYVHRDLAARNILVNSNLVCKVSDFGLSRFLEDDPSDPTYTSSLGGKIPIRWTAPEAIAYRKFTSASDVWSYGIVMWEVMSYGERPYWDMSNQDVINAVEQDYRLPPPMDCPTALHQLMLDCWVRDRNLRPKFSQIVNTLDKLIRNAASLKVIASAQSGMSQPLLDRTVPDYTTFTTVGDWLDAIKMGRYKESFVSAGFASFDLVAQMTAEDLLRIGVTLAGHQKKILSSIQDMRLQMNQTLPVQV
# [10] = molecular target: T3, Phosphatidylinositol 5-phosphate 4-kinase type-2 beta (Homo sapiens) (UniProt P78356); experiment: Selectivity interaction (KinomeScan (DiscoverX)) EUB0000618a PIP4K2B; conditions: at 10 µM
# T3 sequence (whole entry): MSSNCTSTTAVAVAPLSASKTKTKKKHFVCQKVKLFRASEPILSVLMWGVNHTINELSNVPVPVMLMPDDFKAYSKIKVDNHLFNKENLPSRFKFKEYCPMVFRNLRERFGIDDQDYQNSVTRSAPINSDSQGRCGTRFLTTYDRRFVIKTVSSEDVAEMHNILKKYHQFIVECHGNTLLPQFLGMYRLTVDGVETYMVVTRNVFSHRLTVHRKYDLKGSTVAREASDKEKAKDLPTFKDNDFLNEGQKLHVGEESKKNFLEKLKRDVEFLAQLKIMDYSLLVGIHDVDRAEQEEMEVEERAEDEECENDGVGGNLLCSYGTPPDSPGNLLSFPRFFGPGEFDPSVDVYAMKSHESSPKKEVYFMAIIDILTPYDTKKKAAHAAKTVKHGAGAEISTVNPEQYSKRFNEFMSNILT
# Sequence of Mitogen-activated protein kinase kinase kinase kinase 4 (O95819 2-1239 limits assumed): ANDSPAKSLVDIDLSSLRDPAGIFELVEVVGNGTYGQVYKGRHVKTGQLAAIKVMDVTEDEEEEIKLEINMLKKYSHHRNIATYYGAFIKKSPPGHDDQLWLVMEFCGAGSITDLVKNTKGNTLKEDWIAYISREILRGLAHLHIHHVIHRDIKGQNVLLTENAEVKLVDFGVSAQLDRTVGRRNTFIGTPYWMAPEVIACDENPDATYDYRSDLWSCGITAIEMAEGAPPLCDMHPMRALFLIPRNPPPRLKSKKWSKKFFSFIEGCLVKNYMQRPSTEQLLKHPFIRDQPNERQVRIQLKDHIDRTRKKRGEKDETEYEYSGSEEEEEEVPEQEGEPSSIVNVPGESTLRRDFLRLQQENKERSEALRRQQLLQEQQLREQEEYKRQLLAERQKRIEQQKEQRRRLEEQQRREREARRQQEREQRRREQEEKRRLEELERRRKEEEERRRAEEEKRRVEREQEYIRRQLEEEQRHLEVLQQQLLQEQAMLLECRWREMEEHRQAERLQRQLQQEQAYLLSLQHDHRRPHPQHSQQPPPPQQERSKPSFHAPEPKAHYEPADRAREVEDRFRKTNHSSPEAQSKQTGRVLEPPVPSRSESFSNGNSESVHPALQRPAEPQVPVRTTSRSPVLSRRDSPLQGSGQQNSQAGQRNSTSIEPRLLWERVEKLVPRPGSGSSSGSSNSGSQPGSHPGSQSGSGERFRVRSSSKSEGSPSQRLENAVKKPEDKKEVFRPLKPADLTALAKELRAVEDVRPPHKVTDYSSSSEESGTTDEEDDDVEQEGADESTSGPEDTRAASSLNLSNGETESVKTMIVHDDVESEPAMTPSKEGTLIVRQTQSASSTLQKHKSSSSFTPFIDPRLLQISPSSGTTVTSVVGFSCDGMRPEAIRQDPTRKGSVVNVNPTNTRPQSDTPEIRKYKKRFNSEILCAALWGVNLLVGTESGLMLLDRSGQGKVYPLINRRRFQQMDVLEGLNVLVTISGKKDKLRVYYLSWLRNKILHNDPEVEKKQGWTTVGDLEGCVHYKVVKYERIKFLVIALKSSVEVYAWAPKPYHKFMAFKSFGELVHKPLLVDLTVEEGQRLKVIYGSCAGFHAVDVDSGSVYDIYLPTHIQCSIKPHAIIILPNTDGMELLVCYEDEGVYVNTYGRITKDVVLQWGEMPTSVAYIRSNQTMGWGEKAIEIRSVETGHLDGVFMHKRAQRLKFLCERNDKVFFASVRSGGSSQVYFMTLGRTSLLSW
# Sequence of 1-phosphatidylinositol 3-phosphate 5-kinase (Homo sapiens) (Q9Y2I7 whole entry): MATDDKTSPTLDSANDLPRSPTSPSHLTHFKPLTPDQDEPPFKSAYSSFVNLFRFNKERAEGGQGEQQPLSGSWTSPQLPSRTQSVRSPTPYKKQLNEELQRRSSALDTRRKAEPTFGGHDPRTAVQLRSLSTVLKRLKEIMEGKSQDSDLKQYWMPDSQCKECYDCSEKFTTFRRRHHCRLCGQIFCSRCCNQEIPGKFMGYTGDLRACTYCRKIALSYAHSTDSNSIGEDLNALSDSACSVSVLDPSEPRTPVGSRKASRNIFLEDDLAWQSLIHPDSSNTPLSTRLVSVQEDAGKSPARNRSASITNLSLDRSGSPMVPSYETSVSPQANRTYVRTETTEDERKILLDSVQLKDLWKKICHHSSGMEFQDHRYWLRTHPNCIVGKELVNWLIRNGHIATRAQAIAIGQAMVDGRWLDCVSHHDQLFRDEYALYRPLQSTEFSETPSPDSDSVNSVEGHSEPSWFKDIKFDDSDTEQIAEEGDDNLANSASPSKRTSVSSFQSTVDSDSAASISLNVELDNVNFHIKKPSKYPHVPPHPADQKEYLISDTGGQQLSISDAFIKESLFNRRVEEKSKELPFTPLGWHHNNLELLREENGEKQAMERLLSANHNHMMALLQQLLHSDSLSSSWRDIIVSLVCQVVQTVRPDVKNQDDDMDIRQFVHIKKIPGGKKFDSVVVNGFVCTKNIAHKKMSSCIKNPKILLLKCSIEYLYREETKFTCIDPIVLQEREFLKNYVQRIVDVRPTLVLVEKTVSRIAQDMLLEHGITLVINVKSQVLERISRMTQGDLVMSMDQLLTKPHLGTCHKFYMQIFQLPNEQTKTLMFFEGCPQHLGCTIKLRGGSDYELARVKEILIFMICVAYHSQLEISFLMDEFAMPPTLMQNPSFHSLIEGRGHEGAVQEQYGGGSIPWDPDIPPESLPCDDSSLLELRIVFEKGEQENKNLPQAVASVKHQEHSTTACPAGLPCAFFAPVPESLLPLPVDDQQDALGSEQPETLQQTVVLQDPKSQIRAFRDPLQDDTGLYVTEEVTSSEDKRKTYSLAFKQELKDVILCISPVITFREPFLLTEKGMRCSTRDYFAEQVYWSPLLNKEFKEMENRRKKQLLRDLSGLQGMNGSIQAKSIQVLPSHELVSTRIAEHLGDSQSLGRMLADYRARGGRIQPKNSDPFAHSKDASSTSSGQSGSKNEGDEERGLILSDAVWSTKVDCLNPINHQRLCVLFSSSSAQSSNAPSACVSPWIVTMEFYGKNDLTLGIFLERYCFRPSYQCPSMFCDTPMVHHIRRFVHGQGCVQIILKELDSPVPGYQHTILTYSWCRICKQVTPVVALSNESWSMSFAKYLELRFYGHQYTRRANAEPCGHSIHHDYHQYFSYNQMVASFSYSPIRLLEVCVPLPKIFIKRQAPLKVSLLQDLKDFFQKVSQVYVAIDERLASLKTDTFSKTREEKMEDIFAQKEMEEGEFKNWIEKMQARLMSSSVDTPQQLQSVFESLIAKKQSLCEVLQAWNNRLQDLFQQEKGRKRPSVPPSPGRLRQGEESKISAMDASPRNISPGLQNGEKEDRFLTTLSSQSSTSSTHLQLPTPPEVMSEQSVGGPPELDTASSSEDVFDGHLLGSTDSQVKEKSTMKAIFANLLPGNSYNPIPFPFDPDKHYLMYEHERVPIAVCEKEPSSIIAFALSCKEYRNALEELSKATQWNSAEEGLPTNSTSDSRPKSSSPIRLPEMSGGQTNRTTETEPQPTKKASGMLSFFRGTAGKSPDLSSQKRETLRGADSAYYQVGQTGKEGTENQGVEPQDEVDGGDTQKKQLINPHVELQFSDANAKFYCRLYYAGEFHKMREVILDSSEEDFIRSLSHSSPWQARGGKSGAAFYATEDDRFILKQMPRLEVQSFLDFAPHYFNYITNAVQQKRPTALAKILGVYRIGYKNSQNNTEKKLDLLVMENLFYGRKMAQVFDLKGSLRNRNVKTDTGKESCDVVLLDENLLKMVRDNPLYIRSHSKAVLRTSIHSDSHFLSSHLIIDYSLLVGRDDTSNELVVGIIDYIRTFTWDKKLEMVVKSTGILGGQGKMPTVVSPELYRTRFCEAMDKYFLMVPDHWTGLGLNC
# Sequence of Insulin receptor-related protein (Homo sapiens) (P14616 27-742 limits assumed): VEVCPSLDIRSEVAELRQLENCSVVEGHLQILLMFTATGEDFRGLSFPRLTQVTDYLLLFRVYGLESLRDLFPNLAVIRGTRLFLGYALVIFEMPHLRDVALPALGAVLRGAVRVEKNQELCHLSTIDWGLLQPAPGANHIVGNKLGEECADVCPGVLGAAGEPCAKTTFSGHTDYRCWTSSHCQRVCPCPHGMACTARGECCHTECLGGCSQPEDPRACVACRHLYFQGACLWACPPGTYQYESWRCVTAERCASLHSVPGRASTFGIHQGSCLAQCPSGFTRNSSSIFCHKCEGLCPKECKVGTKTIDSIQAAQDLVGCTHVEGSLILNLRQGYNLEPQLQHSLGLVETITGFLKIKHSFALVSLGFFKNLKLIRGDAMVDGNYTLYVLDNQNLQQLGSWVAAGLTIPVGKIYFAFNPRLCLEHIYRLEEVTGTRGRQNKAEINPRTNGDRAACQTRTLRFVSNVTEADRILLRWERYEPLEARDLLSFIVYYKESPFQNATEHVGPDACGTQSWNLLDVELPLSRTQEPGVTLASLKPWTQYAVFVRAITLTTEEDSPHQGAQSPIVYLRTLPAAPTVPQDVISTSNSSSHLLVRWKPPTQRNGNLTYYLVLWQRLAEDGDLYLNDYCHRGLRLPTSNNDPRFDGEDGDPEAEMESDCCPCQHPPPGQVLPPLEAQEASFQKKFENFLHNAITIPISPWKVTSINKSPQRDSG
# Sequence of Insulin receptor-related protein (Homo sapiens) (P14616 747-1297 limits assumed): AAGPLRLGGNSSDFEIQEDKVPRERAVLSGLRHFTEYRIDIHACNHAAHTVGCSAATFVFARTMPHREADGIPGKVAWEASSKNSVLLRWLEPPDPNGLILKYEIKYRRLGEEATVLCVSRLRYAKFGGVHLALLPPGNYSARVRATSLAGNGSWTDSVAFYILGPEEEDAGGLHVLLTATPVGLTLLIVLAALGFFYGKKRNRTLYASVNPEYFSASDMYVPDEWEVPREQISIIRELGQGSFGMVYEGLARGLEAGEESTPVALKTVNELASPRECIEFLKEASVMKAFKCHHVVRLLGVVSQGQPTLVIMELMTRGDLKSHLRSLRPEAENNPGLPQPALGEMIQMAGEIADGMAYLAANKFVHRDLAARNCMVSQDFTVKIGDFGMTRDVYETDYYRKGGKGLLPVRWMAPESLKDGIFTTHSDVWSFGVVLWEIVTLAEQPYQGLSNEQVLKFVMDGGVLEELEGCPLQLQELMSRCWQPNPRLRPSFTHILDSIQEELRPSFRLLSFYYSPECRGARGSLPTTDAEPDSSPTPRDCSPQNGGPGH
compound,measurement,setting,value
COCC(=O)NC/C=C/c1ccc2ncnc(Nc3ccc(Oc4ccc(C)nc4)c(C)c3)c2c1 [CP-724714],% of control,[1],100%
Nc1cnc(N2CCc3cc(S(=O)(=O)Nc4c(F)cc(Cl)cc4F)cc(N4CCCC4=O)c32)nc1 [TP-020n],% of control,[2],79%
Cn1cc(-n2cnc3c(NCc4nc5cc(Cl)c(Cl)cc5[nH]4)nc(N4CCOCC4)nc32)cn1,% of control,[3],0.348%
O=C(NOC[C@H](O)CO)c1ccc(F)c(F)c1Nc1ccc(I)cc1F,% of control,[4],86%
Cc1cnc(Nc2ccc(F)cc2Cl)nc1-c1c[nH]c(C(=O)N[C@H](CO)c2cccc(Cl)c2)c1,% of inhibition,[5],18%
COc1cc(Nc2nc(C)cc(-c3cnn4nc(OC)ccc34)n2)cc(C(F)(F)F)c1,% of control,[6],100%
same,% of control,[7],71%
N#Cc1cccc(-c2c[nH]c3ncnc(N4CCOCC4)c23)c1,% of inhibition,[8],-3%
O[C@H]1CC[C@H](Nc2ncc3nc(Nc4c(F)cc(F)cc4F)n([C@H]4CCOC4)c3n2)CC1,% of control,[9],84%
same,% of control,[10],98%

# Reference: ChEMBL document CHEMBL5465560, “Selectivity Literature for EUbOPEN Chemogenomic Library” (2024)
